Marks after values point to notes of the source that are not given here.

For data set [1] the following is noted: ref Zheng et al. [24]; cited from earlier work. The text has this:
(§1) Yudho-Sutopo et al. reported the ACE-I inhibitory activity of four synthetic peptides from pearl garlic (DHSTAVW, KLAKVF, KLSTAASF, and KETPEAHVF). […] According to Yudho-Sutopo et al., the hydrophobic amino acid in the C-terminal and amino acids with a positively charged side-chain amino group, like in DHSTAVW, are determinants in the inhibition of ACE-I. Furthermore, a study by Zheng et al. reported an ACE-I inhibitory peptide – RGQVIYVL – from Chenopo ...

The subject of a further data set is ACE-I. Particulars: Chenopodium quinoa Willd peptide; ref Zheng et al. [24]; read-out: ACE-I inhibition IC50; cited from earlier work.
From the text: as §1

The test system of another data set is DPP-IV. More on the design: method as in Vilcacundo et al. [40]. Particulars: 250 μM; ref Vilcacundo et al. [40]; cited from earlier work.
A further data set concerns α-glucosidase. Particulars: 250 μM; ref Vilcacundo et al. [40]; cited from earlier work. The source says: The inhibitory effects of quinoa-derived peptides (YDDER, NIYQIS, and QDQHQKIR) toward α-glucosidase are depicted in Table .
The subject of a further data set is α-amylase. Particulars: ref Zhou et al. [70]; cited from earlier work. The source says:
As α-amylase plays a significant role in T2DM, this study investigated the inhibitory effects of synthetic quinoa peptides on this enzyme.

The next data set relates to human DPP-IV. Kind of data set: DPP-IV inhibitory activity. The data set is classed as biochemical. Particulars: H-Gly-Pro-pNA, 37 °C, mean ± SD, n = 9. On the procedure:
Dipeptidyl peptidase-IV (DPP-IV) inhibitory activity was measured following the method by Vilcacundo et al., with slightly modifications. […] For the negative control 70 μL of Tris Buffer was added. Finally, 100 μL of substrate (H-Gly-Pro-pNA, 100 mM) was added to all wells. The reaction was performed at 37 °C in the microplate reader (BioTek Instruments, Winooski, VT, USA), and the reaction was read at 405 nm for 30 min, with reading intervals of 2 min. Finally, data were plotted and fitted to a logarithmic regression to obtain dose–response curves.

A further data set is described as follows: Fe^2+ chelation assay. Particulars: 125 μM; ferrozine, pH 4.9, 37 °C, 10 min; mean ± SD, n = 9. On the procedure: Fe^2+ chelation assay was measured according to Sanchez-Velazquez et al. with slightly modifications. 25 μL of sample (synthetic peptides, […]) or positive control (EDTA, 0.1 μg/μL) was added to 225 μL of buffer (sodium acetate, 100 mM, pH 4.9), then 15 μL of iron solution (0.1%, w/v) and 9 μL of ferrozine (40 mM) were added to start the reaction. For the blank well, 250 μL of buffer was added to the iron solution and ferrozine. The reaction was incubated 10 min at 37 °C and then read at 562 nm (SPARK-10M, TECAN, Switzerland). Fe^2+ chelating activity was calculated as described previously for copper.

The subject of data set [2] is angiotensin I converting enzyme. Description: ACE-I inhibitory activity (fluorometric kit CS0002). Particulars: fluorometric kit, 37 °C, mean ± SD, n = 9. Format: biochemical. On the procedure: ACE-I inhibitory assay was determined by ACE-I activity assay kit (fluorometric, CS0002). This assay is based on the hydrolysis of angiotensin I by ACE to yield angiotensin II. Briefly, all reagents were diluted in the assay buffer, and a total of 50 μL of peptide sample, positive control (captopril PHR1307), and assay buffer (blank) were added to a 96-well black plate. The standard was added at 0, 0.1, 0.2, 0.3, 0.4, 0.5, 0.6, and 0.8 nmol and adjusted to a final volume of 100 μL. […] Finally, fluorescence (λex, 320 nm; λem, 405 nm) was measured in five cycles for 5 min. Linear regressions were determined to calculate the enzymatic activity for each sample per concentration. Thus, one unit was defined as the amount of enzyme that releases 1 nmol of fluorescent substrate in 1 min at 37 °C. Finally, the inhibition (%) of each peptide and positive control was determined using regression analysis of the corresponding dose–response curves.

For data set [3], the system named is 15-LOX enzyme (soybean lipoxygenase). Kind of data set: Lipoxygenase inhibitor screening assay (LOX). The data set is classed as biochemical. Particulars: 31.25 μM; linoleic acid 1 mM, RT, 490 nm. How it is done: Lipoxygenase inhibitory activity assay (LOX) was determined following the manufacturer’s instructions (#760700). Thus, peptide concentrations (31.25–125 μM) were prepared with the assay buffer and tested in triplicate. First, 10 μL of the peptides at each concentration was mixed with 90 μL of 15-LOX enzyme (soybean lipoxygenase) in a 96-well plate. Then, three wells each contained assay buffer as blank (without enzyme), assay buffer as vehicle (with enzyme), and 15-LOX as positive control. Afterward, 10 μL of linoleic acid (1 mM) (substrate) was added to all wells and shaken for 10 min at RT. Finally, 100 μL of chromogen was added to all wells, and the plate was sealed and shaken for an additional 5 min at RT. The final reaction was measured at 490 nm, and the percentage of inhibition was calculated as. %inhibition=[1−Correctedvaluesofpeptide/Correctedvaluesofvehicle]×100

In data set [4] the test system is porcine pancreatic α-amylase (PPA). Description: α-Amylase inhibition. Format: biochemical. Particulars: CNPG3 substrate, 405 nm, 37 °C, mean ± SD, n = 9. On the procedure:
α-Amylase inhibition activity was performed using the 3,5-dinitrosalicylic acid (DNS) assay according to Zulfiqar et al. […] Then, 50 μL of substrate (2-chloro-4-nitro-[…] (CNPG3) (2 mM)) was added per well. Finally, absorbance was recorded at 405 nm (SPARK-10M, TECAN, Switzerland) at 37 °C for 10 min in 1-min intervals. The percentage of enzyme inhibition was calculated in relation to 100% enzymatic activity in the negative control (phosphate-buffered saline (PBS) buffer, enzyme, and substrate).

The nature of data set [5]: Oxygen radical absorbance capacity (ORAC) assay. Particulars: AAPH, fluorescein, 37 °C, 150 min. On the procedure:
Oxygen radical absorbance capacity (ORAC) assay was performed following the method of Carvalho-Oliveira et al. Briefly, 30 μL of peptide (different concentrations 50–1000 μM) or standard (Trolox at 0–160 μM) were placed in a black 96-well plate. The reaction mixture comprised 180 μL of fluorescein (116.9 nM) and 90 μL of 2,2’-azobis(2-amidinopropane) dihydrochloride (AAPH) (40 mM). Finally, the fluorescence was recorded every 2 min for 150 min at excitation and emission wavelengths of 485 and 520 nm, respectively. All reactions were performed at 37 °C. The results were expressed as μmol Trolox equivalent (TE)/μmol of peptide. Quantification and interpretation of the data were done by Gen5 software, version 1.1 (BioTek Instruments, Winooski, VT, USA).

Another data set is described as follows: Cu^2+ chelation assay. Particulars: pyrocatechol violet, pH 6.0, 37 °C, 10 min, mean ± SD, n = 9. How it is done:
Cu^2+ chelation assay was determined according to Sanchez-Velazquez et al., with slight modifications. Briefly, 21 μL of sample (synthetic peptides, […]) or positive control (EDTA, 0.1 μg/μL) was added to 185 μL of buffer (sodium acetate, 50 mM, pH 6.0), and then 15 μL of copper solution (10 μg) and 9 μL of pyrocatechol violet (2 mM) were added for the reaction. For the blank well, 205 μL of buffer was added to the copper and pyrocatechol violet reaction mixture. The reaction was incubated for 10 min at 37 °C and then read at 632 nm (SPARK-10M, TECAN, Switzerland). Cu^2+ chelating activity was calculated as: %Chelatingactivity=Abscontrol−Abssample/Abscontrol×100

Data set [6] has as its system rat intestinal acetone α-glucosidase. Description: α-Glucosidase inhibition. Format: biochemical. How it is done:
α-Glucosidase inhibition assay was measured following the method of Vilcacundo et al., with slightly modifications. First, 100 μL of sample ([…]), positive control (1 mM acarbose), and/or negative control (Milli-Q-water), were added to 50 μL of rat intestinal acetone α-glucosidase (1 U/mL in 0.1 M, maleate buffer pH 6.9), and the mixture was incubated at 37 °C for 5 min. Then, 50 μL of substrate (2 mM maltose) was added into each tube, which was performed in a Thermomixer (37 °C, 1000 rpm, for 30 min). Finally, the reaction was stopped at 100 °C for 5 min. The glucose concentration in the reaction was measured using GOPOD (glucose oxidase/peroxidase) from Megazyme, with absorbance measured at 560 nm (Gen5 software, version 1.1, BioTek Instruments, Winooski, VT, USA). The percentage of inhibition was calculated relative to the non-inhibited control (negative control).

With RGQVIYVL, the hydrophobic residue content in data set [1] was 62.50%. For the same substance, the IC50 with ACE-I was 38.2 µM.

As for “IQAQGGLT [DPP-IV quinoa-derived peptide reported by Vilcacundo et al]”, the DPP-IV inhibition with DPP-IV is recorded as 17.05%.

Consider “IQEGGLT [quinoa-derived peptide reported by Vilcacundo et al]”, for which the α-glucosidase inhibition in the data set with α-glucosidase was 55.85%.

Regarding “MMFPH [quinoa-derived peptide reported by Zhou et al]”, in the data set on α-amylase, the α-amylase inhibition entry was “stronger α-amylase inhibition”.

As to “QDQHQKIR [quinoa 11S globulin peptide, custom-synthesized by GenScript, purity 95%]”, the DPP-IV inhibition result with human DPP-IV (125 μM) was “ND (no inhibitory effect was observed at the given concentration)”; in the data set with human DPP-IV (250 μM) it was “ND (no inhibitory effect was observed at the given concentration)”; in the data set on human DPP-IV (500 μM), 5.26 ± 0.30^c %. The “Fe^2+ chelating activity” value in the data set “Fe^2+ chelation assay” was 5.11 ± 1.0%. Moreover, the ACE-I inhibition in data set [2] (125 μM) is recorded as 6.8 ± 0.56^f %. Moreover, the inhibition is 9.75 ± 0.21% in data set [2] (250 μM) and 15.6 ± 0.34% in data set [4] (400 μM). In addition, the LOX inhibition in [3] was found to be 8.44%. Moreover, the α-amylase inhibition in data set [4] (300 μM) was 18.43 ± 0.33^a %; in data set [4] (500 μM), 15.37 ± 0.35^b %. The ORAC in data set [5] is 0.02 μmol TE/μmol peptide; in [5] (mean ± SD, n = 9), 0.02 ± 0.00^c μM TE/μM Peptide. In addition, the “Cu^2+ chelating activity” value in “Cu^2+ chelation assay” (15.62 μM) was found to be 39.79 ± 1.4%; in “Cu^2+ chelation assay” (31.25 μM), 37.46 ± 0.26%; in the data set “Cu^2+ chelation assay” (62.5 μM), 40.8 ± 0.31%. The α-glucosidase inhibition entry is reported as “ND (no inhibitory effect was observed at the given concentration)” in data set [6] (300 μM, 2 mM maltose, pH 6.9, 37 °C, mean ± SD, n = 9); “ND (no inhibitory effect was observed at the given concentration)” in data set [6] (400 μM, 2 mM maltose, pH 6.9, 37 °C, mean ± SD, n = 9); “ND (no inhibitory effect was observed at the given concentration)” in data set [6] (500 μM, 2 mM maltose, pH 6.9, 37 °C, mean ± SD, n = 9); “did not present any α-glucosidase inhibition” in [6] (any of the tested concentrations (100–500 μM)).

The IC50 is the concentration that inhibits the measured activity by half. The inhibition is how much of the control response was suppressed. Low values mean a response near the control, high ones a response far below the control.

The record behind these values is article PMC12426930, “Antioxidant, Hypotensive, and Antidiabetic Breakthroughs: Bromelain Hydrolysis Unlocks Quinoa’s Peptide Potential - In Silico and In Vitro Approach” (Journal of Agricultural and Food Chemistry, 2025).
